For seven compounds, IC50 results are on record in BindingDB's records for doi:10.1111/cbdd.12843 (Key Laboratory for Neurodegenerative Diseases of Ministry …, 2017).

Structures are written as SMILES.

For this assay, the target named is D(2) dopamine receptor (Homo sapiens, UniProt P14416). The assay can be described thus: Dopamine D2 Receptor Activity Assay. As to conditions: 37 °C. The procedure:
D2 receptor/G protein α16a co-transfected HEK293 cells (from the Shanghai Institute of Materia Medica, Chinese Academy of Sciences) were seeded in 96-wellplates and incubated overnight at 37 °C. The media were then removed, and 40 μL of 10 μM Fluo-4/AM (a calcium fluorescent probe) (Invitrogen Corporation, Carlsbad, CA, USA) was added. The plates were then incubated for 40 min at 37 °C. After the supernatant was discarded and the cells were washed with calcium buffer, 50 μL of calcium buffer containing tested compounds at the dosage range from 0.01 nM to 10 μM was added, and the plates were incubated for 10 min. The fluorescence values at an emission wavelength of 525 nm and an excitation wavelength of 485 nm were detected by the FlexStation II microplate reader (Molecular Devices, San Francisco, CA, USA), starting 15 s after 25 μL of calcium buffer containing 50 nM dopamine (an agonist of the dopamine D2 receptor) (Sigma-Aldrich, Saint Louis, MO,USA) was automatically added by the instrument.

D(2) dopamine receptor, sequence (P14416 whole entry): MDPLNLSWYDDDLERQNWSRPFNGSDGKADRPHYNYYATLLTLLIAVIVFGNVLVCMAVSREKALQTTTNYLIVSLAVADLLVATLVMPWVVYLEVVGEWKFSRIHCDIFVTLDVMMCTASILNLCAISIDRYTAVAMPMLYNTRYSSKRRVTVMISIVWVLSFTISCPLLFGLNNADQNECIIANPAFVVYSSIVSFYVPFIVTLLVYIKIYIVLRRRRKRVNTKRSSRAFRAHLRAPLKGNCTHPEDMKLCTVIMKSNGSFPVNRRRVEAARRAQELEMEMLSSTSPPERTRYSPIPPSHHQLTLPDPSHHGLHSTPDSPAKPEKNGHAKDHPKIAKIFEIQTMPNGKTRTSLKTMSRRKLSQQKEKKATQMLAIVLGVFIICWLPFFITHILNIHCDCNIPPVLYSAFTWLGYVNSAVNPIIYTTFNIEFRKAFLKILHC

`O=C1C[C@@H](c2ccc(F)cc2)Oc2cc(OCCCCN3CCC(c4noc5cc(F)ccc45)CC3)cc(O)c21` [5-Hydroxy-2-(4-fluorophenyl)-7-(4-(4-(6-fluorobenzo[d]isoxazol-3-yl)piperidin-1-yl)butoxy)chroman-4-one (7e)] yielded an IC50 of 87.7 nM.
In turn, `COc1ccc([C@@H]2CC(=O)c3c(O)cc(OCCCCN4CCN(c5ccccc5OC)CC4)cc3O2)cc1` [5-Hydroxy-2-(4-methoxyphenyl)-7-(4-(4-(2-methoxyphenyl)piperazin-1-yl)butoxy)chroman-4-one (7a)] showed an IC50 of 205 nM.
For `COc1ccc([C@@H]2CC(=O)c3c(O)cc(OCCCN4CCN(c5ccccc5OC)CC4)cc3O2)cc1` [5-Hydroxy-2-(4-methoxyphenyl)-7-(4-(4-(2-methoxyphenyl)piperazin-1-yl)propoxy)chroman-4-one (7f)] the value was 220 nM; for `COc1ccc([C@@H]2CC(=O)c3c(O)cc(OCCCCN4CCC(c5noc6cc(F)ccc56)CC4)cc3O2)cc1` [5-Hydroxy-2-(4-methoxyphenyl)-7-(4-(4-(6-fluorobenzo[d]isoxazol-3-yl)piperidin-1-yl)butoxy)chroman-4-one (7d)], 51.3 nM; for `COc1ccc([C@@H]2CC(=O)c3c(O)cc(OCCCN4CCC(c5noc6cc(F)ccc56)CC4)cc3O2)cc1` [5-Hydroxy-2-(4-methoxyphenyl)-7-(4-(4-(6-fluorobenzo[d]isoxazol-3-yl)piperidin-1-yl)propoxy)chroman-4-one (7g)], 116 nM.
For `COc1ccccc1N1CCN(CCCCOc2cc(O)c3c(c2)O[C@H](c2ccc(C)cc2)CC3=O)CC1` [5-Hydroxy-2-(4-methylphenyl)-7-(4-(4-(2-methoxyphenyl)piperazin-1-yl)butoxy)chroman-4-one (7b)] the value was 346 nM; for `COc1ccccc1N1CCN(CCCCOc2cc(O)c3c(c2)O[C@H](c2ccc(F)cc2)CC3=O)CC1` [5-Hydroxy-2-(fluorophenyl)-7-(4-(4-(2-methoxyphenyl)piperazin-1-yl)butoxy)chroman-4-one (7c)], 57.3 nM.

Usually IC50 stands for the point on the concentration scale where inhibition reaches its midpoint.
